Measured values: patent US20230126711A1, “ENTERIC NITRERGIC NEURONS AND METHODS OF USING THE SAME” (The Regents of the University of California, priority 2020, published 2023)

Tested on: NOS1
Experiment: Percentage of NO neurons in treated cultures by flow cytometry for NOS1
Assay type: cell-based, human
Details: flow cytometry for NOS1, compared to no treatment
Method: NO neurons quantified using flow cytometry for NOS1.
Option 1 (for 3-D Culture): • 30. On day 15, ENC spheroids are gathered in the center of the wells using a swirling motion and neural crest medium is removed using a P1000 micropipette in slow circular motion, avoiding the free-floating spheroids. • 31. Spheroids are fed with the same volume of ENC medium containing PP121 (1-5 μM), GDNF (10 ng/ml), ascorbic acid (100 μM), N2 supplement (10 μl/ml), B27 supplement (20 μl/ml), glutagro (10 μl/ml), and MEM NEAAs (10 μl/ml) in neurobasal medium. • 32. Cells are fed with ENC every other day until day 30-40, after which, feeding frequency can be reduced to once or twice a week but with a higher volume of medium.
Option 2 (for 2-D Culture): • 30. On day 15, ENC spheroids are gathered in the center of the wells using a swirling motion and neural crest medium is removed using a P1000 micropipette in slow circular motion, avoiding the free-floating spheroids. • 31. After washing the spheroids with PBS, accutase is added and plates are incubated for 30 minutes at 37° C. to dissociate the spheroids. • 32. Then, remaining spheroids are broken by pipetting ENC medium. • 33. ENC contains PP121 (1-5 μM), GDNF (10 ng/ml), ascorbic acid (100 μM), N2 supplement (10 μl/ml), B27 supplement (20 μl/ml), glutagro (10 μl/ml), and MEM NEAAs (10 μl/ml) in neurobasal medium. • 34. […]

Row | Compound | percentage of NO neurons (NOS1 induction)
1 | PDGF | reduced the percentage of NO neurons
2 | Nc1ncnc2c1c(-c1cnc3[nH]ccc3c1)nn2C1CCCC1 [PP121] | enhances NOS1 induction efficiency
